Like-named read-outs stand apart in the source and are kept apart here.
How the values were obtained:
[1] = tested on: lignification in the Casparian strip; settings: five day old seedlings grown in vitro, continuous exposure to 10 μM; Van de Wouwer et al., 2016; cited from earlier work
C4H gene = C4H gene expression in root system of rice plants after foliar treatment; format: in vivo, Oryza sativa cv. Bomba; settings: fourteen-day old rice plants, foliar treatment 24 and 3 hours prior to harvest, 100 μM
Source text: Techniques for measuring and determining the (effect on) activity of C4H are well known to the one of ordinary skill in the art. Useful methods to determine inhibition of C4H activity are (incorporated by reference): • Measurement of the conversion efficiency of trans-cinnamic acid labeled with ^13C or ^14C in the presence of a potential C4H inhibitor in plant cell cultures or in yeast microsomes in which the CYP73A1 is expressed (as described in Schoch et al. 2002; Van de Wouwer et al. 2016; Schalk et al. 1998). Representative inhibition kinetics values obtained in cell suspensions for both competitive and irreversible C4H inhibitors can be found in Table 1 in Schoch et al., 2002 (incorporated by reference). • Inhibition of the C4H enzyme increases the concentration of free trans-cinnamic acid, which is rapidly conjugated in planta. The accumulation of trans-cinnamic acid amino acid conjugates, which can be quantified using HPLC-MS, can be used as a proxy measure for C4H inhibition in planta. This approach is outlined in Steenackers et al. 2016. […] Representative values for the increase in the quantity of trans-cinnamic acid conjugates are found in Supplemental Figure S2 in Steenackers et al. 2016 (incorporated by reference). • Inhibition of the C4H enzyme causes a compensatory upregulation of the C4H gene, as shown in Example 20. […]

[2] = tested on: Arabidopsis thaliana seedlings; settings: continuous exposure of seedlings; Steenackers et al. 2016; read-out: IC50-root (dose required to reduce primary root elongation by 50%); cited from earlier work
[3] = tested on: Arabidopsis thaliana seedlings; test: Primary root elongation of Arabidopsis thaliana seedlings (IC50-root); format: in vivo; settings: continuous exposure of seedlings, unpublished data, read-out: IC50-root (dose required to reduce primary root elongation by 50%)
Tetranychus urticae [4] = test: Two-spotted spider mite reproduction on tomato after foliar spray; format: in vivo; settings: 300 μM foliar spray, ten days after inoculation with ten females
Description: Tomato (cv. Moneymaker) seeds were obtained from Vreeken's Zaden (Dordrecht, the Netherlands). Seeds were germinated on potting soil at 22° C.; seedlings were then transferred to individual pots filled with potting soil and placed in a growth chamber at 24° C. with 16 hours per day of fluorescent light.
(§1) A 100 mM piperonylic acid stock was prepared by dissolving piperonylic acid (Sigma-Aldrich, Saint-Louis, USA) in DMSO (Duchefa Biochemie, Haarlem, the Netherlands). Before use, this stock solution was diluted with distilled water to a concentration of 300 μM and mixed with 0.1 v/v % Tween 20. Working solutions of 1000 μM PA (Aculops experiment) were prepared in a similar manner from a 300 mM stock solution. The resulting spraying solution was applied to plants until run-off using an atomizer. […]
Tomato plants in the early four-leaf stage were inoculated with T. urticae by placing ten adult females on the second leaf of each plant. […] All moving mites present on the leaf were counted (regardless of life stage).
Images of tomato leaves damaged by S. exigua were analyzed using the ImageJ software. For T. urticae damage, the total area of the second leaf of each plant was quantified using the polygon selection tool. Then, the total area of chlorotic patches on the leaf was measured in the same manner and the ratio of both values was calculated to obtain the percentage of chlorotic leaf.

Rhopalosiphum padi [5] = test: Bird cherry-oat aphid reproduction on wheat, first experiment; format: in vivo; settings: 300 μM foliar spray, ten days
Description: (§2) Winter wheat (cv. Sahara) seeds were obtained from Aveve Agrarisch (Landen, Belgium). Seeds were washed with a 10% ethanol solution to remove residual fungicide traces and then germinated on wet paper at room temperature. Seedlings were transferred to potting soil and placed in a growth chamber at 22° C. with 16 hours per day of fluorescent light.
as §1, with “atomizer. As a control, a solution consisting of an equivalent amount of DMSO and Tween 20 was used in the same manner.” for “atomizer.”
In the first experiment, R. padi aphids were reared on barley plants grown at room temperature. […] Twenty-four hours later, the number of remaining adults on each pot was recorded. Ten days later, the number of aphids in each pot was counted. The reproductive factor was calculated by dividing the number of aphids counted after ten days by the number of remaining adult females twenty-four hours after inoculation.

Rhopalosiphum padi [6] = test: Bird cherry-oat aphid reproduction on wheat, second experiment (synchronized aphids); format: in vivo; settings: 300 μM foliar spray, ten days
Description: as §2
as §1, with “atomizer. As a control, a solution consisting of an equivalent amount of DMSO and Tween 20 was used in the same manner.” for “atomizer.”
In the second experiment, R. padi aphids were reared on barley plants grown at room temperature. […] Twenty-four hours later, the number of remaining adults on each pot was recorded. Ten days later, the number of aphids in each pot was counted. The reproductive factor was calculated by dividing the number of aphids counted after ten days by the number of remaining adult females twenty-four hours after inoculation.

Bemisia tabaci = test: Tobacco whitefly egg development on cotton after foliar spray; format: in vivo; settings: 300 μM foliar spray
Description: Cotton seeds were germinated in individual pots filled with potting soil and placed in a greenhouse with supplemental lighting (16 hours of light per day).
(§3) A 100 mM piperonylic acid stock was prepared by dissolving piperonylic acid (Sigma-Aldrich, Saint-Louis, USA) in DMSO (Duchefa Biochemie, Haarlem, the Netherlands). Before use, this stock solution was diluted with distilled water to a concentration of 300 μM and mixed with 0.1 v/v % Tween 20. Working solutions of 1000 μM PA (Aculops experiment) were prepared in a similar manner from a 300 mM stock solution. The resulting spraying solution was applied to plants until run-off using an atomizer. As a control, a solution consisting of an equivalent amount of DMSO and Tween 20 was used in the same manner. Plants were sprayed twice, one and eight days before inoculation. The tomato plants used in the spider mite experiment were sprayed a final time five days after inoculation, but only on the non-inoculated leaves to avoid direct effects of the spray on the mites.
B. tabaci (biotype Q) was reared on cotton plants under controlled laboratory conditions. Approximately sixty mixed-sex adults were collected and placed in ventilated vials attached to the leaves of two-week old cotton plants. After being allowed to oviposit for 24 hours, the adults were removed. Eight days after oviposition, leaves were detached and the number of unhatched eggs, crawlers and nymphs per plant was recorded.

Steneotarsonemus spinki = test: Greenhouse experiment: rice yield and fertility under panicle rice mite stress; format: in vivo
Description: Rice seeds (cv. Kitaake) were sterilized and germinated on wet paper in the dark at 30° C. Seedlings were transferred to sterilized potting soil and placed in a climate-controlled compartment at the Ghent University greenhouse complex (Melle, Belgium). The compartment was known to host a natural mite infestation; the causal mite had previously been identified as Steneotarsonemus spinki by professor Thomas van Leeuwen of the agrozoology lab at Ghent University. Pots were arranged in a completely randomized manner in the same tray.
To determine the effects of C4H inhibition on yield and fertility in the presence of mites, rice (Oryza sativa cv. Kitaake) was grown in a greenhouse until maturity and treated with a control or 300 μM PA foliar spray at bi-weekly intervals. This greenhouse is naturally infested with the panicle rice mite (Steneotarsonemus spinki).

Aculops lycopersici [7] = test: Tomato russet mite population growth on tomato; format: in vivo; settings: ten days after inoculation with 30 mites
Description: as §3
A. lycopersici was reared on tomato plants in an incubator at 27° C.; 50% RH and 16:8 L:D. For inoculation of the PA-treated (300 μM or 1000 μM) or Control plants, 30 mites were transferred with a fine brush to a small leaf disk (1 cm), which was then placed on top of the plants. The mites were allowed the reproduce on the tomato plants during ten days, after which the total number of mites was compared.

[8] = tested on: Frankliniella occidentalis; test: Western flower thrips progeny on pepper plants; format: in vivo; settings: 300 μM, progeny counted three days after four-day infestation with ten adults (control 19.0±1.84)
Description: Pepper seedlings (cv. Cayenne long slim) were transferred to individual pots with potting soil two weeks after sowing. Plants were maintained in a growth room (25° C., 16:8 L:D) for two additional weeks. Plants were removed from the soil and placed with their roots in water (to accommodate the Plexiglas cage system) at the onset of thrips infestation (4 weeks old).
as §3, with “The tomato plants used in the spider mite experiment were sprayed a final time five days after inoculation, but only on the non-inoculated leaves to avoid direct effects of the spray on the mites.” left out
F. occidentalis was reared on bean pods in an incubator at 28° C.; 70% RH and 16:8 L:D. For inoculation of the PA-treated (300 μM) or Control plants, 10 females (two days old since turning adult) were transferred with a fine brush to a pepper plant inside a Plexiglas cage. After four days, all females were removed, while their progeny was counted three days later.

Spodoptera exigua = test: Acute (direct) toxicity to Spodoptera exigua L3 larvae; format: in vivo; settings: 300 μM, out of 30 larvae (control 29)
Description: Spodoptera exigua—S. exigua was reared on an artificial diet in a 24° C. incubator. Recently molted L3 larvae were placed in petri dishes containing tissue paper and 2 g of artificial feed pellets. Both tissue paper and pellets were wetted with 10 ml of either distilled water or distilled water containing 300 μM PA. Twenty-four and seventy-two hours later, the number of surviving caterpillars was counted. A caterpillar was considered alive if it was either actively moving, or if it moved when gently prodded. It was also recorded whether a caterpillar was feeding (present on a feed pellet) to measure whether PA-treated feed pellets were repellent to the caterpillar.
S. exigua—Direct toxicity of piperonylic acid (PA) was determined using the protocol outlined in the materials and methods section. Briefly, 30 recently molted L3 larvae were placed per petri dish containing tissue paper and food pellets that had been wetted with either a 300 μM piperonylic acid solution or a water control.

Tetranychus urticae [9] = test: Acute (direct) toxicity to spider mites sprayed on leaf discs; format: in vivo; settings: 300 μM spray, after 24 h
Description: Tetranychus urticae—Spider mites of a laboratory reference strain were collected and placed on arenas consisting of a square bean leaf disc, placed on wet cotton wool and lined with paper tissue. Each arena received 25 to 30 adult female mites. The arenas were then sprayed in a custom-build spray tower with either 300 μM PA or control solution, six replicates each. The mites were incubated at 25° C., 18:6 L:D. Mortality was scored after 24 h. Mites were scored as either drowned (in water barrier), alive or dead (not moving its own body length within 10 seconds after prodding with a tiny brush).
T. urticae—Direct toxicity of PA to spider mites was evaluated by spraying mites on leaf disks with either 300 μM PA or control solution.

Aculops lycopersici [10] = test: Acute (direct) toxicity to russet mites sprayed on leaf disks; format: in vivo; settings: 300 μM spray, after 24 h
Description: Aculops lycopersici—Tomato russet mites were collected from a lab culture and transferred to a tomato leaf disk placed on agar. Each disk received 25 to 30 adult mites. The disks with mites were then sprayed in a custom-build spray tower with either 300 μM PA or control solution, six replicates each. The russet mites were incubated at 25° C., 18:6 L:D. Mortality was scored after 24 h. Mites were scored as either lost (in agar barrier), alive or dead.
A. lycopersici—Direct toxicity of PA to russet mites was evaluated by spraying mites on leaf disks with either 300 μM PA or control solution.

[11] = rice, 300 μM foliar spray bi-weekly, three months after emergence

Compound: O=C(O)c1ccc(I)cc1 [4-IBA, 4-iodobenzoic acid]
- increase of the number of non-lignified endodermal cells in the Casparian strip region [1]: 57%

Compound: O=C(O)C=Cc1ccc2c(c1)OCO2 [MDCA, 3,4-methylenedioxycinnamic acid]
- increase of C4H expression in the root system (C4H gene): three-fold
- IC50 [2]: 5.07 µM
- increase of the number of non-lignified endodermal cells in the Casparian strip region [1]: 104%

Compound: O=C(O)c1ccc2c(c1)OCO2 [PA, Piperonylic acid]
- increase of C4H expression in the root system (C4H gene): ten-fold
- IC50 [3]: 40 µM
- change in number of mites present on the leaf vs control (Tetranychus urticae [4]): −49%
- change in percentage of visibly chlorotic leaf area vs control (Tetranychus urticae [4]): −62%
- change in reproductive factor of R. padi vs control (Rhopalosiphum padi [5]): −32%
- change in reproductive factor of R. padi vs control (Rhopalosiphum padi [6]): 29%
- number of eggs deposited on cotton plants (Bemisia tabaci; 24 hours oviposition): did not affect
- eggs failed to hatch (Bemisia tabaci; eight days after oviposition (control 3%)): 20%
- eggs developed into nymphs (Bemisia tabaci; eight days after oviposition (control 16%)): 9%
- change in number of seeds vs control (Steneotarsonemus spinki; rice cv. Kitaake, 300 μM foliar spray at bi-weekly intervals, three months after emergence): +104%
- empty panicles vs control (Steneotarsonemus spinki; [11]): fewer empty panicles
- tillers developed vs control (Steneotarsonemus spinki; [11]): more tillers
- change in seed germination rate vs control (Steneotarsonemus spinki; seeds from treated plants, seven days on wet paper): +45%
- reduction of russet mite population growth vs control (Aculops lycopersici [7]; 300 μM, not significant (p=0.052)): about 50%
- reduction of russet mite population growth vs control (Aculops lycopersici [7]; 1000 μM, not significant (p=0.089)): about 50%
- number of thrips larvae recovered (mean±SE) [8]: 11.33±1.82 larvae
- L3 larvae alive (Spodoptera exigua; after seventy-two hours): 27
- L3 larvae alive (Spodoptera exigua; after twenty-four hours): 28
- spider mite mortality vs control (Tetranychus urticae [9]): No significant difference
- russet mite mortality vs control (Aculops lycopersici [10]): No significant difference
- increase of the number of non-lignified endodermal cells in the Casparian strip region [1]: 134%

Reference: patent US12593844B2, “Method and compounds to induce plant tolerance against arthropod pests” (Universiteit Gent, priority 2018, dated 2026)
